Patent US20060156431A1, “L-gulose dependent vitamin C synthesis” (Vlaams Interuniversitair Instituut Voor Biotechnologie VZW, priority 2003, published 2006)
Like-named read-outs stand apart in the source and are kept apart here.

How the values were obtained:
[1] = target: T1, GDP-Man 3″,5″-epimerase of A. thaliana (Arabidopsis thaliana, UniProt Q93VR3); assay: GDP-Man 3″,5″-epimerase assay (HPLC); assay type: biochemical; conditions: for inhibition at 1000 µM: read-out: inhibition of the epimerase activity; for epimerase activity: purified epimerase, exogenously added dinucleotide
T1 construct: The hydroxylapatite fraction of native epimerase (11) was used; endogenous in cells; host or cells: Arabidopsis thaliana ecotype Columbia cell suspensions; enzyme purified, hydroxylapatite fraction
T1 sequence (Q93VR3 1-377): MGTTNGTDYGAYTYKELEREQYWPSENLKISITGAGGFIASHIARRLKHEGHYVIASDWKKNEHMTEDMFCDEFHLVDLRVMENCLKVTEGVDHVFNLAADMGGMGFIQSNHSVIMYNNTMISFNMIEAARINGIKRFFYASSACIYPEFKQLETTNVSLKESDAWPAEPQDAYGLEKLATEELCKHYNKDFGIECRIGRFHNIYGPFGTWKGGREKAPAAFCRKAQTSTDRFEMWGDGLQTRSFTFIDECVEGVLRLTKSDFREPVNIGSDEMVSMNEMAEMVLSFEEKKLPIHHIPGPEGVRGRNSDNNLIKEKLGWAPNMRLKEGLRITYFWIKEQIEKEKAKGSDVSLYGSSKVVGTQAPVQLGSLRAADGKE
Description: Characterization of GDP-Man 3″,5″-epimerase of A. thaliana. (A) Steady-state parameters of the native (purified from A. thaliana cell suspensions) and recombinant enzyme. The hydroxylapatite fraction of native epimerase (11) was used. The affinity-purified recombinant enzymes were used. […] Double reciprocal plots are shown and each line represents a fixed GDP concentration: 0 μM, circles; 2 μM, triangles; and 4 μM, squares. V0 is pmol of GDP-L-Gal/L-Gul produced per minute. GDP-Man concentrations were from 1.1 to 5.5 μM. Inset: Secondary plot of slopes versus GDP concentration was used to determine the Ki value for GDP. […] Incubations contained GDP-[^14C]Man (3.4 μM), increasing amounts of GDP-L-Fuc, and an aliquot of the hydroxylapatite fraction of epimerase. Kinetic measurements were performed in duplicates; standard deviation was equal or less than 5%.

Chlorella epimerase = conditions: read-out: Km for the GDP-Man substrate; cited from earlier work
[2] = system: A. thaliana cell suspensions; assay: In vivo labeling of A. thaliana cell suspensions with D-[U-14C]Man and L-AA determination; assay type: cell-based, Arabidopsis thaliana; conditions: pre-incubated 20 hours with 2.5 mM compound; for [^14C]-labeled L-AA / [^14C]-labeled L-AA (% of control): labeled two hours with D-[U-14C]Man; for Cold L-AA: acid extracts, HPLC
Description: GDP-Man 3″,5″-epimerase assay and L-AA determination. The GDP-Man 3″,5″-epimerase activity and L-AA were measured by the HPLC method as described (13), with the exception that the concentration of methanol in solvent A was 0.5% and the flow rate was 0.8 ml/min.
In vivo labeling of A. thaliana cell suspensions with D-[U-14C]Man. In vivo labeling of A. thaliana cells was performed as described (13). Cell suspensions were pre-adapted to labeling conditions for 20 hours in the presence or absence of exogenous L-AA or its precursors (2.5 mM), followed by two hours labeling with 1 μCi of D-[U-14C]Man. L-AA was extracted with 5% metaphosphoric acid containing 2 mM DTT and 1 mM EDTA.

| Molecule | Cold L-AA (% of control) [2] | [^14C]-labeled L-AA [2] | [^14C]-labeled L-AA (% of control) [2] | Cold L-AA [2] [nmol/g fw] | further results |
| --- | --- | --- | --- | --- | --- |
| O=C1O[C@H]([C@H](O)CO)C(O)=C1O [D-isoascorbic acid] |  |  |  |  | inhibition of the epimerase activity ([1]; 1 mM): no effect |
| Nc1nc2c(ncn2[C@@H]2O[C@H](COP(=O)(O)OP(=O)(O)O[C@H]3O[C@H](CO)[C@@H](O)[C@H](O)[C@H]3O)[C@@H](O)[C@H]2O)c(=O)[nH]1 [GDP-Glc, guanosine diphospho-D-glucose] |  |  |  |  | Ki [1]: 5 µM |
| C[C@@H]1O[C@H](OP(=O)(O)OP(=O)(O)OC[C@H]2O[C@@H](n3cnc4c(=O)[nH]c(N)nc43)[C@H](O)[C@@H]2O)[C@@H](O)[C@H](O)[C@@H]1O [GDP-L-Fuc, Guanosine diphospho-L-fucose] |  |  |  |  | IC50 [1]: 70 µM; type of inhibition of the epimerase ([1]; even at 1 mM concentration): partial inhibition |
| Nc1nc2c(ncn2[C@@H]2O[C@H](COP(=O)(O)OP(=O)(O)O[C@H]3O[C@H](CO)[C@@H](O)[C@H](O)[C@@H]3O)[C@@H](O)[C@H]2O)c(=O)[nH]1 [GDP-Man, GDP-D-mannose] |  |  |  |  | Km ([1]; native epimerase, FIG. 1A, read-out: Km for the GDP-Man substrate): 4.4 µM; Km (Chlorella epimerase): 96 µM |
| Nc1nc2c(ncn2[C@@H]2O[C@H](COP(=O)(O)OP(=O)(O)O)[C@@H](O)[C@H]2O)c(=O)[nH]1 [GDP] |  |  |  |  | Ki [1]: 0.7 µM |
| O=C1O[C@H]([C@@H](O)CO)C(O)=C1O [L-AA, L-ascorbic acid] | 832 % of control | 448 10^−3 × cpm/mg fw | 33 % of control | 1764 | inhibition at 1000 µM ([1]; 1 mM): 15% |
| O=C1O[C@H]([C@@H](O)CO)[C@H](O)[C@@H]1O [L-Gulono-1,4-lactone, L-gulono-1,4-lactone] | 165 % of control | 722 10^−3 × cpm/mg fw | 54 % of control | 345 |  |
| O=C[C@@H](O)[C@@H](O)[C@H](O)[C@@H](O)CO [L-Gulose, L-gulose] | 190 % of control | 872 10^−3 × cpm/mg fw | 65 % of control | 403 |  |
| O=C1O[C@H]([C@@H](O)CO)[C@@H](O)[C@@H]1O [L-galactono-1,4-lactone] | 170 % of control | 790 10^−3 × cpm/mg fw | 59 % of control | 360 | inhibition at 1000 µM [1]: 14% |
| O=C[C@@H](O)[C@H](O)[C@H](O)[C@@H](O)CO [L-galactose] | 315 % of control | 423 10^−3 × cpm/mg fw | 32 % of control | 668 | inhibition of the epimerase activity ([1]; 1 mM): no effect |
| NC(=O)c1ccc[n+]([C@@H]2O[C@H](COP(=O)([O-])OP(=O)(O)OC[C@H]3O[C@@H](n4cnc5c(N)ncnc54)[C@H](O)[C@@H]3O)[C@@H](O)[C@H]2O)c1 [NAD+] |  |  |  |  | epimerase activity [1]: 145 % of control |
| NC(=O)C1=CN([C@@H]2O[C@H](COP(=O)(O)OP(=O)(O)OC[C@H]3O[C@@H](n4cnc5c(N)ncnc54)[C@H](O)[C@@H]3O)[C@@H](O)[C@H]2O)C=CC1 [NADH] |  |  |  |  | epimerase activity [1]: 78 % of control |
| NC(=O)c1ccc[n+]([C@@H]2O[C@H](COP(=O)([O-])OP(=O)(O)OC[C@H]3O[C@@H](n4cnc5c(N)ncnc54)[C@H](OP(=O)(O)O)[C@@H]3O)[C@@H](O)[C@H]2O)c1 [NADP+] |  |  |  |  | epimerase activity [1]: 110 % of control |
| NC(=O)C1=CN([C@@H]2O[C@H](COP(=O)(O)OP(=O)(O)OC[C@H]3O[C@@H](n4cnc5c(N)ncnc54)[C@H](OP(=O)(O)O)[C@@H]3O)[C@@H](O)[C@H]2O)C=CC1 [NADPH] |  |  |  |  | epimerase activity [1]: 88 % of control |
| adenosine diphospho-D-glucose [ADP-D-Glc] |  |  |  |  | effect on the enzyme activity ([1]; adenosine derivative): no effect |
